In publication PMC8362182, “Acetylenic Replacement of Albicidin's Methacrylamide Residue Circumvents Detrimental E/Z Photoisomerization and Preserves Antibacterial Activity” (Chemistry (Weinheim an Der Bergstrasse, Germany), 2021):
Converted amounts (≈) assume the structure as drawn. Where two headings read alike, the source gives them in different places.

How the values were obtained:
[1] = biological target: T1, E. coli DNA gyrase (Escherichia coli, UniProt P0AES4+P0AES6); assay: DNA gyrase supercoiling assay; format: biochemical; details: tested at 45 nM
T1 construct: gene gyrA; holoenzyme A2B2 (known biology)

[2] = tested on: T2, E. coli DSM1116; assay: microbe, parasite or virus in culture; set-up: broth microdilution MIC in Mueller-Hinton Broth II, CLSI M07-A9
T2 construct: DSM1116
Experimental: (§1) 2 Procedures for Biological Assays. Microdilution Assay. Minimal inhibitory concentration (MIC) values were determined according to the ninth edition of the Approved Standard M07-A9. The test was carried out for six different bacterial strains (E.coli DSM1116 [Gram-negative], E. coli BW25113 [Gram-negative], B. subtilis DSM10 [Gram-postive], M. luteus DSM1790 [Gram-postive], M. phlei DSM750 [Gram-postive], S. typhimurium TA100 [Gram-negative]. 20 µL of cryo stock of each strain were inoculated in 20 mL LB medium (Lysogeny broth: 10 g/L peptone, 5 g/L yeast extract, 5 g/L NaCl) followed by incubation overnight at 37 °C, 200 rpm. The test inoculum was adjusted by the 0.5 McFarland Standard (OD625 from 0.08 to 0.1). Within 15 min of preparation, the adjusted inoculum suspension was diluted in MHBII (BBLTM Mueller-Hinton Broth II, Becton, Dickinson and Company, New Jersey, USA) so that each well contained approximately 5 × 10^5 CFU/mL in a final volume of 100 µL. 95 µL of the inoculum were applied per well and 5 µL of the (diluted) antibiotic substance were added. Previously, the dry antibiotic compounds (1 to 15 and antibiotic control Ciprofloxacin (CIP)) were dissolved in DMSO (100%) with a concentration of 2560 µg/mL, and the so obtained stock solutions were further diluted in DMSO (100%). 5 µL of each antibiotic dilution were applied to the microdilution tray to reach final concentrations of 8 µg/mL to 0.016 µg/mL. One row of each well plate served as a growth control without antibiotic substances and another row of the microdilution tray served as sterility control (only MHB II-media). The antimicrobial effect of the solvent (DMSO) was tested by adding 5 µL DMSO to several wells. […] After UV exposure, we observed a second resonance set mainly for signals arising from residues MCA and pABA‐1. The new signals for the methyl, vinyl and aromatic protons of MCA were clearly shifted up‐field. To provide evidence that the second resonance set arose from the Z isomer, we performed 2D nuclear Overhauser enhancement (NOE) measurements, which unambiguously confirmed the expected atomic distances in the two isomeric states (Figure S1 in the Supporting Information). While only a small portion of the initial E state (t=0 h) was converted after t=2.5 h, an almost complete conversion to the Z isomer was detected after t=16 h. […] After 32 h, however, the equilibrium had also been reached and approximately 65 % of the fluoro analogue adopted the Z‐isomeric form (Figure S2). It is important to note that significant accumulation of the (Z)‐isomer also occurred when albicidin samples were exposed to sunlight (ca. 50 and 80 % Z after 32 and 160 h daylight, respectively) underlining the vulnerability of 1 during routine handling. These findings became even more relevant when we determined minimal inhibitory concentrations (MICs) against a panel of bacteria (Table S1). […] The fact, that the albicidin producer X. albilineans inhabits the xylem of sugar cane, which is exposed to sunlight, could severely impact the stability of albicid

[3] = tested on: T3, M. luteus DSM1790; assay: microbe, parasite or virus in culture; set-up: broth microdilution MIC in Mueller-Hinton Broth II, CLSI M07-A9; details: Micrococcus luteus
T3 construct: DSM1790
Experimental: as §1

[4] = tested on: T4, S. typhimurium TA100; assay: microbe, parasite or virus in culture; set-up: broth microdilution MIC in Mueller-Hinton Broth II, CLSI M07-A9; details: Salmonella enterica
T4 construct: TA100
Experimental: as §1

[5] = tested on: T5, B. subtilis DSM10; assay: microbe, parasite or virus in culture; set-up: broth microdilution MIC in Mueller-Hinton Broth II, CLSI M07-A9; details: Bacillus subtilis
T5 construct: DSM10
Experimental: as §1

[6] = tested on: T6, E. coli BW25113; assay: microbe, parasite or virus in culture; set-up: broth microdilution MIC in Mueller-Hinton Broth II, CLSI M07-A9; details: Escherichia coli
T6 construct: BW25113
Experimental: as §1

[7] = tested on: T3, M. luteus DSM1790; assay: microbe, parasite or virus in culture; set-up: broth microdilution MIC, CLSI M07-A9, MHB II; details: Micrococcus luteus
Experimental: (§2) 2 Procedures for Biological Assays. Microdilution Assay. Minimal inhibitory concentration (MIC) values were determined according to the ninth edition of the Approved Standard M07-A9. The test was carried out for six different bacterial strains (E.coli DSM1116 [Gram-negative], E. coli BW25113 [Gram-negative], B. subtilis DSM10 [Gram-postive], M. luteus DSM1790 [Gram-postive], M. phlei DSM750 [Gram-postive], S. typhimurium TA100 [Gram-negative]. 20 µL of cryo stock of each strain were inoculated in 20 mL LB medium (Lysogeny broth: 10 g/L peptone, 5 g/L yeast extract, 5 g/L NaCl) followed by incubation overnight at 37 °C, 200 rpm. The test inoculum was adjusted by the 0.5 McFarland Standard (OD625 from 0.08 to 0.1). Within 15 min of preparation, the adjusted inoculum suspension was diluted in MHBII (BBLTM Mueller-Hinton Broth II, Becton, Dickinson and Company, New Jersey, USA) so that each well contained approximately 5 × 10^5 CFU/mL in a final volume of 100 µL. 95 µL of the inoculum were applied per well and 5 µL of the (diluted) antibiotic substance were added. Previously, the dry antibiotic compounds (1 to 15 and antibiotic control Ciprofloxacin (CIP)) were dissolved in DMSO (100%) with a concentration of 2560 µg/mL, and the so obtained stock solutions were further diluted in DMSO (100%). 5 µL of each antibiotic dilution were applied to the microdilution tray to reach final concentrations of 8 µg/mL to 0.016 µg/mL. One row of each well plate served as a growth control without antibiotic substances and another row of the microdilution tray served as sterility control (only MHB II-media). The antimicrobial effect of the solvent (DMSO) was tested by adding 5 µL DMSO to several wells. Purity check and cell titer control were performed according to International Standard M07-

[8] = tested on: T4, S. typhimurium TA100; assay: microbe, parasite or virus in culture; set-up: broth microdilution MIC, CLSI M07-A9, MHB II; details: Salmonella enterica
Experimental: as §2

[9] = tested on: T5, B. subtilis DSM10; assay: microbe, parasite or virus in culture; set-up: broth microdilution MIC, CLSI M07-A9, MHB II; details: Bacillus subtilis
Experimental: as §2

[10] = tested on: T6, E. coli BW25113; assay: microbe, parasite or virus in culture; set-up: broth microdilution MIC, CLSI M07-A9, MHB II; details: Escherichia coli
Experimental: as §2

[11] = tested on: T2, E. coli DSM1116; assay: microbe, parasite or virus in culture; set-up: broth microdilution MIC, CLSI M07-A9, MHB II; details: Escherichia coli
Experimental: as §2

[12] = Escherichia coli, DSM1116, read-out: MIC

T1 sequence (P0AES4 2-875, one chain of several): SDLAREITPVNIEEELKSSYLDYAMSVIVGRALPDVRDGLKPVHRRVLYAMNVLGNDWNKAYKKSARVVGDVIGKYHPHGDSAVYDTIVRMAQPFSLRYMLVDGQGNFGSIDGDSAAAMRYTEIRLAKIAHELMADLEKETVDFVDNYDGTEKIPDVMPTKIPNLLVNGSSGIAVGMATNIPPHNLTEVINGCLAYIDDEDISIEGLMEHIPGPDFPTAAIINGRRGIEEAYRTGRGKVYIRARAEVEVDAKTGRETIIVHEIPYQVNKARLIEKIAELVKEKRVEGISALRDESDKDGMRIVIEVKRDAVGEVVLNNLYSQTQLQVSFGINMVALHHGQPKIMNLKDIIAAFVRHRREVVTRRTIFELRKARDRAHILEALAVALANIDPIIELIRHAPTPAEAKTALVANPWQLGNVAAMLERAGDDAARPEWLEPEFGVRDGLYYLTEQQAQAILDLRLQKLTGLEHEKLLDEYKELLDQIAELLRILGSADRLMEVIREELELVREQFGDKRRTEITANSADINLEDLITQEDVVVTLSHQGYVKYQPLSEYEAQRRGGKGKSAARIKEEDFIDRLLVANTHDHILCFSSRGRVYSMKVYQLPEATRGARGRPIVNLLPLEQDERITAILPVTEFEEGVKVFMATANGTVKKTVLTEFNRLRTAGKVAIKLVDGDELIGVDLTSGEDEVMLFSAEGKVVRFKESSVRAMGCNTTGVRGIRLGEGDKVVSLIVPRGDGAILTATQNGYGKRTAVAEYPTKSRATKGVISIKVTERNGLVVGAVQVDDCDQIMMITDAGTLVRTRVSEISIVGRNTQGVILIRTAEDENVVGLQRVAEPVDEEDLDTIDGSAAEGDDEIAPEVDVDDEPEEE

MIC ([2]; inhibitor, CIP) | Structure (SMILES) | inhibition at 45 nM [1] | MIC [2, 12] | MIC [3] | MIC [4] | MIC [5] | MIC [6] | MIC [7] | MIC [8] | MIC [9] | MIC [10] | MIC ([2]; Escherichia coli, dark sample, 100% E isomer) | MIC ([3]; dark sample, 100% E isomer) | MIC ([4]; dark sample, 100% E isomer) | MIC ([5]; dark sample, 100% E isomer) | MIC ([6]; dark sample, 100% E isomer) | MIC [11]
– | COc1c(NC(=O)c2ccc(NC(=O)c3ccc(NC(=O)[C@H](CC#N)NC(=O)c4ccc(NC(=O)/C(C)=C\c5ccc(O)cc5)cc4)cc3)c(OC)c2O)ccc(C(=O)O)c1O [Z isomer of albicidin] | the Z isomer was incapable of inhibiting DNA gyrase | – | – | – | – | – | – | – | – | – | – | – | – | – | – | –
0.031 µg/mL (≈ 0.0936 µM) | O=C(O)c1cn(C2CC2)c2cc(N3CCNCC3)c(F)cc2c1=O [CIP, ciprofloxacin] | – | 0.016 µg/mL (≈ 0.0483 µM) | 1 µg/mL (≈ 3.02 µM) | ≤ 0.016 µg/mL | 0.25 µg/mL (≈ 0.754 µM) | ≤ 0.016 µg/mL | 1 µg/mL (≈ 3.02 µM) | ≤ 0.016 µg/mL | 0.25 µg/mL (≈ 0.754 µM) | ≤ 0.016 µg/mL | – | – | – | – | – | –
– | COc1c(NC(=O)c2ccc(NC(=O)c3ccc(NC(=O)[C@H](CC#N)NC(=O)c4ccc(NC(=O)/C(C)=C/c5ccc(O)cc5)cc4)cc3)c(OC)c2O)ccc(C(=O)O)c1O [compound 1, albicidin] | – | 0.063 µg/mL (≈ 0.0747 µM) | 1 µg/mL (≈ 1.19 µM) | ≤ 0.016 µg/mL | 0.25 µg/mL (≈ 0.297 µM) | 0.063 µg/mL (≈ 0.0747 µM) | 1 µg/mL (≈ 1.19 µM) | ≤ 0.016 µg/mL | 0.25 µg/mL (≈ 0.297 µM) | 0.063 µg/mL (≈ 0.0747 µM) | 0.063 µg/mL (≈ 0.0747 µM) | 1 µg/mL (≈ 1.19 µM) | 0.016 µg/mL (≈ 0.019 µM) | 0.25 µg/mL (≈ 0.297 µM) | 0.063 µg/mL (≈ 0.0747 µM) | 0.063 µg/mL (≈ 0.0747 µM)
